The values below come from paper PMC9705902, “Enzymatic Characterization and Comparison of Two Steroid Hydroxylases CYP154C3-1 and CYP154C3-2 from Streptomyces Species” (Journal of Microbiology and Biotechnology, 2021).

One assay deals with T1, CYP154C3-1 (Streptomyces sp., UniProt A0A2H4WK73).
T1 construct: full-length CDS 1,239 bp (412 residues), N-terminal Trx-His-S-enterokinase fusion from pET32a(+) kept, E. coli C41(DE3), ~65 kDa on SDS-PAGE (~45 kDa theoretical without fusion), heme protein
T1 sequence (A0A2H4WK73 1-414): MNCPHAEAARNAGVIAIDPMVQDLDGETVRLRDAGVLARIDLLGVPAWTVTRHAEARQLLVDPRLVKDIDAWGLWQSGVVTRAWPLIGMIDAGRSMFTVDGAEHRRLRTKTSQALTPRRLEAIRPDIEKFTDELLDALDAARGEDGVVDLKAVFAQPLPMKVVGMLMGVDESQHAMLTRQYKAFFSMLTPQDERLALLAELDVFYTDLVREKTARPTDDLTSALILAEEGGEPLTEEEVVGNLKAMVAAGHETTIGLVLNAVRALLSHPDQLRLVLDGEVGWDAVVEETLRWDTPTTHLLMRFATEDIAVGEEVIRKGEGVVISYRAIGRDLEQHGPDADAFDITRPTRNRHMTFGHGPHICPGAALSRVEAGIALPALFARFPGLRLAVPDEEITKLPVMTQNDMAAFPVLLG
Description: type I spectral shift titration (A390-A420), tight-binding quadratic fit. The arrangement: species or system Streptomyces sp. W2061. The source says: type I spectral shift titration (A390-A420), tight-binding quadratic fit on CYP154C3-1

For a further assay, the target named is T2, CYP154C3-2 (Streptomyces sp., UniProt A0A7S9IUH5).
T2 construct: full-length CDS 1,254 bp (417 residues), N-terminal Trx-His-S-enterokinase fusion from pET32a(+) kept, E. coli C41(DE3), ~65 kDa on SDS-PAGE (~45 kDa theoretical without fusion), heme protein
T2 sequence (A0A7S9IUH5 1-417): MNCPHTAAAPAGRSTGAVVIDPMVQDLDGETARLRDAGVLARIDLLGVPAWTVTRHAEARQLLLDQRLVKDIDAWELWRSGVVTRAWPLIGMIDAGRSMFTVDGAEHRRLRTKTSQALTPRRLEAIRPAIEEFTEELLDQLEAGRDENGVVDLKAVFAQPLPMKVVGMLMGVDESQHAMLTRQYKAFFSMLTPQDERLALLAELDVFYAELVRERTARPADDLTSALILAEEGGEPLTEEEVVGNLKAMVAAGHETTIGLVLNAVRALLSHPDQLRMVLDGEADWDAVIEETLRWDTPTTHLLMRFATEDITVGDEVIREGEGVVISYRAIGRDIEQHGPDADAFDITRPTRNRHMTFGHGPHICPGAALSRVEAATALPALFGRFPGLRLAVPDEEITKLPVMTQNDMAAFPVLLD
Described as above. The source says:
type I spectral shift titration (A390-A420), tight-binding quadratic fit on CYP154C3-2

Take `C[C@]12CCC(=O)C=C1CC[C@@H]1[C@@H]2C(=O)C[C@]2(C)C(=O)CC[C@@H]12` [compound 1, Adrenosterone]: the Kd at CYP154C3-1 is 0.318 ± 0.026 µM; on CYP154C3-2, 0.443 ± 0.035 µM. `C[C@]12CCC(=O)C=C1CC[C@@H]1[C@@H]2CC[C@]2(C)C(=O)CC[C@@H]12` [compound 2, Androstenedione]: the Kd is 0.351 ± 0.033 µM on CYP154C3-1 and 0.475 ± 0.054 µM on CYP154C3-2. Consider `C[C@]12C[C@H](O)[C@H]3[C@@H](CCC4=CC(=O)CC[C@@]43C)[C@@H]1CC[C@@H]2C(=O)CO` [compound 3, Corticosterone], for which the Kd on CYP154C3-1 turned out to be 14.1 ± 2.57 µM; at CYP154C3-2, 44.5 ± 3.97 µM. As for `C[C@]12CC[C@H]3[C@@H](CCC4=CC(=O)CC[C@@H]43)[C@@H]1CC[C@@H]2O` [compound 6, Nandrolone], the Kd on CYP154C3-1 stood at 13.5 ± 2.62 µM; at CYP154C3-2 it was 6.58 ± 0.84 µM.

Turning to `CC(=O)[C@H]1CC[C@H]2[C@@H]3CCC4=CC(=O)CC[C@]4(C)[C@H]3CC[C@]12C` [compound 9, Progesterone], the Kd at CYP154C3-2 worked out at 0.409 ± 0.037 µM.
